Reference: US20190382396A1, “SALTS OF BICYCLO[1.1.1]PENTANE INHIBITORS OF DUAL LEUCINE ZIPPER (DLK) KINASE FOR THE TREATMENT OF DISEASE” (Board of Regents, The University of Texas System, priority 2018, published 2019)
Read-outs that look alike come from different tables or passages of the source. Blank lines part the entries; values can stand above or below the compound they belong to.

How the values were obtained:
Assay type in all cases: physicochemical
[1] = Dynamic vapor sorption (DVS), hygroscopicity; conditions: for Maximum sorption / Hygroscopicity (0-40% RH) / Hygroscopicity (0-90% RH) / Change in mass, Desorption / Change in mass, Sorption / Change in mass, Hysteresis: DVS; for Maximum sorption / Hygroscopicity (0-40% RH) / Hygroscopicity (0-90% RH): 25° C.; for Hygroscopicity; form change: form change after DVS
Experimental: Dynamic vapor sorption (“DVS”) was performed at 25° C., using approx 10-15 mg of sample and N2 gas at a flow rate of 200 mL/min, dm/dt=0.01% min, minimum dm/dt stability duration of 10 min, max equilibration time of 180 min, drying at 0% RH for 120 min, scanning from 0% RH to 90% RH to 0% RH with a step size of 10% RH.
Total cycling time varied, but in all cases was about 200-250 min.

[2] = Solubility in physiologically relevant solutions (SGF, FaSSIF, FeSSIF); conditions: 25±0.5° C.; for solubility at 24 h: 25 °C, thermodynamic from solid
Experimental: Solubility of the free base 1 and the selected salts 8, 9, 10, and 11 in physiologically relevant solutions were examined. For each material, aliquots were added to 2 ml vials containing 500 uL of either SGF, FaSSIF, or FeSSIF, which were then sealed. The mixtures were kept shaking by thermomixer at 700 rpm, 25±0.5° C. for 24 h to facilitate the dissolution and then centrifuged by 96-well plates at 3000 rpm for 2 min. The filter liquors were diluted with diluents (ACN/water, 50/50) and analyzed by HPLC.

[3] = Stability (50° C., 40° C./75% RH, light; 1 week); conditions: for XRPD change? / purity: bulk, 1 week; for initial purity: initial (before storage)
Experimental: The stability of the free base 1 and the selected salts 8, 9, 10, and 11 was evaluated. For each material, aliquots were set up at each of conditions (50° C., 40° C./75% RH, light) at given time points (initial and 1 week). PXRD diffractograms of the hydrogen fumarate salt 11 is shown in FIG. 17, with trace (a) showing the initial salt, trace (b) showing the salt after light treatment, trace (c) showing the salt after storage at 40° C. and 75% relative humidity for 1 week, and (d) showing the salt after storage at 50° C. for 1 week.

[4] = simulated gastric fluid, SGF, read-out: Solubility SGF Conc
[5] = FaSSIF, read-out: Solubility FaSSIF Conc
[6] = FeSSIF, read-out: Solubility FeSSIF Conc

Maximum sorption [1]: 0.60%
Hygroscopicity (0-40% RH) [1]: 0.17%
Hygroscopicity (0-90% RH) [1]: 0.6%
Change in mass, Desorption ([1]; Target % P/P0 0.0): 0.0373%
Change in mass, Sorption ([1]; Target % P/P0 0.0): 0.0000%
Change in mass, Desorption ([1]; Target % P/P0 10.0): 0.0913%
Change in mass, Hysteresis ([1]; Target % P/P0 10.0): 0.0426%
Change in mass, Sorption ([1]; Target % P/P0 10.0): 0.0487%
Change in mass, Desorption ([1]; Target % P/P0 20.0): 0.1293%
Change in mass, Hysteresis ([1]; Target % P/P0 20.0): 0.0411%
Change in mass, Sorption ([1]; Target % P/P0 20.0): 0.0882%
Change in mass, Desorption ([1]; Target % P/P0 30.0): 0.1757%
Change in mass, Hysteresis ([1]; Target % P/P0 30.0): 0.0502%
Change in mass, Sorption ([1]; Target % P/P0 30.0): 0.1255%
Change in mass, Desorption ([1]; Target % P/P0 40.0): 0.2145%
Change in mass, Hysteresis ([1]; Target % P/P0 40.0): 0.0418%
Change in mass, Sorption ([1]; Target % P/P0 40.0): 0.1727%
Change in mass, Desorption ([1]; Target % P/P0 50.0): 0.2609%
Change in mass, Hysteresis ([1]; Target % P/P0 50.0): 0.0418%
Change in mass, Sorption ([1]; Target % P/P0 50.0): 0.2191%
Change in mass, Desorption ([1]; Target % P/P0 60.0): 0.3119%
Change in mass, Hysteresis ([1]; Target % P/P0 60.0): 0.0388%
Change in mass, Sorption ([1]; Target % P/P0 60.0): 0.2731%
Change in mass, Desorption ([1]; Target % P/P0 70.0): 0.3743%
Change in mass, Hysteresis ([1]; Target % P/P0 70.0): 0.0320%
Change in mass, Sorption ([1]; Target % P/P0 70.0): 0.3423%
Change in mass, Desorption ([1]; Target % P/P0 80.0): 0.4565%
Change in mass, Hysteresis ([1]; Target % P/P0 80.0): 0.0228%
Change in mass, Sorption ([1]; Target % P/P0 80.0): 0.4336%
Change in mass, Desorption ([1]; Target % P/P0 90.0): 0.6040%
Change in mass, Sorption ([1]; Target % P/P0 90.0): 0.6040%
Hygroscopicity; form change [1]: no change
solubility at 24 h [2, 4]: 6.33 mg/mL
solubility at 24 h [2, 5]: 0.113 mg/mL
solubility at 24 h [2, 6]: 0.773 mg/mL
FaSSIF pH after 24 h ([2]; FaSSIF): 5.53
FeSSIF pH after 24 h ([2]; FeSSIF): 4.86
SGF pH after 24 h ([2]; SGF): 3.26
XRPD change? ([3]; 40° C., 75% RH): no
purity ([3]; 40° C., 75% RH): 99.41%
XRPD change? ([3]; 50° C.): no
purity ([3]; 50° C.): 98.91%
initial purity [3]: 99.58%
XRPD change? ([3]; light): no
purity ([3]; light): 99.44%
SMILES: CC(C)c1nc(-c2cnc(N)c(OC(F)(F)F)c2)cn1C12CC(N3CCOCC3)(C1)C2.O=C(O)CC(O)(CC(=O)O)C(=O)O [Example 8, 5-(2-isopropyl-1-(3-morpholinobicyclo[1.1.1]pentan-1-yl)-1H-imidazol-4-yl)-3-(trifluoromethoxy)pyridin-2-amine dihydrogen citrate]

Maximum sorption [1]: 0.27%
Hygroscopicity (0-40% RH) [1]: 0.07%
Hygroscopicity (0-90% RH) [1]: 0.27%
Change in mass, Desorption ([1]; Target % P/P0 0.0): −0.0030%
Change in mass, Sorption ([1]; Target % P/P0 0.0): 0.0000%
Change in mass, Desorption ([1]; Target % P/P0 10.0): 0.0196%
Change in mass, Hysteresis ([1]; Target % P/P0 10.0): 0.0015%
Change in mass, Sorption ([1]; Target % P/P0 10.0): 0.0181%
Change in mass, Desorption ([1]; Target % P/P0 20.0): 0.0354%
Change in mass, Hysteresis ([1]; Target % P/P0 20.0): 0.0038%
Change in mass, Sorption ([1]; Target % P/P0 20.0): 0.0317%
Change in mass, Desorption ([1]; Target % P/P0 30.0): 0.0573%
Change in mass, Hysteresis ([1]; Target % P/P0 30.0): 0.0151%
Change in mass, Sorption ([1]; Target % P/P0 30.0): 0.0422%
Change in mass, Desorption ([1]; Target % P/P0 40.0): 0.0747%
Change in mass, Hysteresis ([1]; Target % P/P0 40.0): 0.0090%
Change in mass, Sorption ([1]; Target % P/P0 40.0): 0.0656%
Change in mass, Desorption ([1]; Target % P/P0 50.0): 0.0950%
Change in mass, Hysteresis ([1]; Target % P/P0 50.0): 0.0136%
Change in mass, Sorption ([1]; Target % P/P0 50.0): 0.0814%
Change in mass, Desorption ([1]; Target % P/P0 60.0): 0.1199%
Change in mass, Hysteresis ([1]; Target % P/P0 60.0): 0.0158%
Change in mass, Sorption ([1]; Target % P/P0 60.0): 0.1041%
Change in mass, Desorption ([1]; Target % P/P0 70.0): 0.1516%
Change in mass, Hysteresis ([1]; Target % P/P0 70.0): 0.0189%
Change in mass, Sorption ([1]; Target % P/P0 70.0): 0.1327%
Change in mass, Desorption ([1]; Target % P/P0 80.0): 0.1938%
Change in mass, Hysteresis ([1]; Target % P/P0 80.0): 0.0151%
Change in mass, Sorption ([1]; Target % P/P0 80.0): 0.1787%
Change in mass, Desorption ([1]; Target % P/P0 90.0): 0.2655%
Change in mass, Sorption ([1]; Target % P/P0 90.0): 0.2655%
Hygroscopicity; form change [1]: no change
solubility at 24 h [2, 4]: 13.4 mg/mL
solubility at 24 h [2, 5]: 0.113 mg/mL
solubility at 24 h [2, 6]: 0.565 mg/mL
FaSSIF pH after 24 h ([2]; FaSSIF): 5.65
FeSSIF pH after 24 h ([2]; FeSSIF): 4.90
SGF pH after 24 h ([2]; SGF): 3.26
XRPD change? ([3]; 40° C., 75% RH): no
purity ([3]; 40° C., 75% RH): 99.87%
XRPD change? ([3]; 50° C.): no
purity ([3]; 50° C.): 99.89%
initial purity [3]: 99.83%
XRPD change? ([3]; light): no
purity ([3]; light): 99.79%
SMILES: CC(C)c1nc(-c2cnc(N)c(OC(F)(F)F)c2)cn1C12CC(N3CCOCC3)(C1)C2.O=C(O)/C=C\C(=O)O [Example 9, 5-(2-isopropyl-1-(3-morpholinobicyclo[1.1.1]pentan-1-yl)-1H-imidazol-4-yl)-3-(trifluoromethoxy)pyridin-2-amine hydrogen maleate]

Maximum sorption [1]: 0.30%
Hygroscopicity (0-40% RH) [1]: 0.05%
Hygroscopicity (0-90% RH) [1]: 0.3%
Change in mass, Desorption ([1]; Target % P/P0 0.0): 0.0514%
Change in mass, Sorption ([1]; Target % P/P0 0.0): 0.0000%
Change in mass, Desorption ([1]; Target % P/P0 10.0): 0.0647%
Change in mass, Hysteresis ([1]; Target % P/P0 10.0): 0.0496%
Change in mass, Sorption ([1]; Target % P/P0 10.0): 0.0151%
Change in mass, Desorption ([1]; Target % P/P0 20.0): 0.0727%
Change in mass, Hysteresis ([1]; Target % P/P0 20.0): 0.0487%
Change in mass, Sorption ([1]; Target % P/P0 20.0): 0.0239%
Change in mass, Desorption ([1]; Target % P/P0 30.0): 0.0930%
Change in mass, Hysteresis ([1]; Target % P/P0 30.0): 0.0611%
Change in mass, Sorption ([1]; Target % P/P0 30.0): 0.0319%
Change in mass, Desorption ([1]; Target % P/P0 40.0): 0.1081%
Change in mass, Hysteresis ([1]; Target % P/P0 40.0): 0.0549%
Change in mass, Sorption ([1]; Target % P/P0 40.0): 0.0532%
Change in mass, Desorption ([1]; Target % P/P0 50.0): 0.1267%
Change in mass, Hysteresis ([1]; Target % P/P0 50.0): 0.0541%
Change in mass, Sorption ([1]; Target % P/P0 50.0): 0.0727%
Change in mass, Desorption ([1]; Target % P/P0 60.0): 0.1489%
Change in mass, Hysteresis ([1]; Target % P/P0 60.0): 0.0514%
Change in mass, Sorption ([1]; Target % P/P0 60.0): 0.0975%
Change in mass, Desorption ([1]; Target % P/P0 70.0): 0.1790%
Change in mass, Hysteresis ([1]; Target % P/P0 70.0): 0.0523%
Change in mass, Sorption ([1]; Target % P/P0 70.0): 0.1267%
Change in mass, Desorption ([1]; Target % P/P0 80.0): 0.2233%
Change in mass, Hysteresis ([1]; Target % P/P0 80.0): 0.0292%
Change in mass, Sorption ([1]; Target % P/P0 80.0): 0.1941%
Change in mass, Desorption ([1]; Target % P/P0 90.0): 0.3013%
Change in mass, Sorption ([1]; Target % P/P0 90.0): 0.3013%
Hygroscopicity; form change [1]: no change
solubility at 24 h [2, 4]: 7.08 mg/mL
solubility at 24 h [2, 5]: 0.0722 mg/mL
solubility at 24 h [2, 6]: 0.642 mg/mL
FaSSIF pH after 24 h ([2]; FaSSIF): 5.92
FeSSIF pH after 24 h ([2]; FeSSIF): 4.88
SGF pH after 24 h ([2]; SGF): 3.71
XRPD change? ([3]; 40° C., 75% RH): no
purity ([3]; 40° C., 75% RH): 100%
XRPD change? ([3]; 50° C.): no
purity ([3]; 50° C.): 100%
initial purity [3]: 99.74%
XRPD change? ([3]; light): no (2)
purity ([3]; light): 99.74%
SMILES: CC(C)c1nc(-c2cnc(N)c(OC(F)(F)F)c2)cn1C12CC(N3CCOCC3)(C1)C2.O=C(O)CCC(=O)O [Example 10, 5-(2-isopropyl-1-(3-morpholinobicyclo[1.1.1]pentan-1-yl)-1H-imidazol-4-yl)-3-(trifluoromethoxy)pyridin-2-amine hydrogen succinate]
